Starred links: 1 amine or outer side, 2 acyl side, 3 side chain; linkers in the order of their positions; H or OH if unused. Non-standard residues stand in square brackets, D forms with d. Residues, ends and D or L forms follow the SMILES beside them. ξ: configuration not given here. ξNMeVal(3-OH) = CNC(C(=O)O)C(C)(C)O; NMeF = CN[CH](Cc1ccccc1)C(=O)O; X1 = CCC(C)C(O[*:1])C(=O)[*:2]; NMeV = CN[CH](C(=O)O)C(C)C
Assays:
Assay type in all cases: cell-based
[1] = test system: Candida albicans TIMM 0144; assay: MIC by agar dilution method, casitone agar; conditions: 27° C. for 4 days
Description: (§1) The minimum inhibitory concentration (MIC) of each antibiotic against various fungi was determined by the agar dilution method using casitone agar medium (2.0% glucose, 0.9% bacto-casitone, 1.0% yeast extract, 0.1% KH2 PO4, 0.1% Na2 HPO4, 1.0% sodium citrate, 2.0% agar: concentrations are all by w/v).
(§2) Each minimum growth inhibitory concentration was determined after culturing at 27° C. for 4 days.

[2] = test system: Candida albicans TIMM 1529; assay: MIC by agar dilution method, casitone agar; conditions: 27° C. for 4 days
Description: as §1, §2

[3] = test system: Candida albicans TIMM 1623; assay: MIC by agar dilution method, casitone agar; conditions: 27° C. for 4 days
Description: as §1, §2

[4] = test system: Candida albicans var. stellatoidia TIMM 1308; assay: MIC by agar dilution method, casitone agar; conditions: 27° C. for 4 days
Description: as §1, §2

[5] = test system: Candida glabrata TIMM 1062; assay: MIC by agar dilution method, casitone agar; conditions: 27° C. for 4 days
Description: as §1, §2

[6] = test system: Candida glabrata TIMM 1064; assay: MIC by agar dilution method, casitone agar; conditions: 27° C. for 4 days
Description: as §1, §2

[7] = test system: Candida guilliermondii TIMM 0257; assay: MIC by agar dilution method, casitone agar; conditions: 27° C. for 4 days
Description: as §1, §2

[8] = test system: Candida kefyr TIMM 0298; assay: MIC by agar dilution method, casitone agar; conditions: 27° C. for 4 days
Description: as §1, §2

[9] = test system: Candida krusei TIMM 0270; assay: MIC by agar dilution method, casitone agar; conditions: 27° C. for 4 days
Description: as §1, §2

[10] = test system: Candida parapsilosis TIMM 0287; assay: MIC by agar dilution method, casitone agar; conditions: 27° C. for 4 days
Description: as §1, §2

[11] = test system: Candida tropicalis TIMM 0312; assay: MIC by agar dilution method, casitone agar; conditions: 27° C. for 4 days
Description: as §1, §2

[12] = test system: Candida tropicalis TIMM 0315; assay: MIC by agar dilution method, casitone agar; conditions: 27° C. for 4 days
Description: as §1, §2

[13] = test system: Cryptococcus laurentii TIMM 0352; assay: MIC by agar dilution method, casitone agar; conditions: 27° C. for 4 days
Description: as §1, §2

[14] = test system: Cryptococcus neoformans TIMM 0354; assay: MIC by agar dilution method, casitone agar; conditions: 27° C. for 4 days
Description: as §1, §2

[15] = test system: Cryptococcus neoformans TIMM 0355; assay: MIC by agar dilution method, casitone agar; conditions: 27° C. for 4 days
Description: as §1, §2

[16] = test system: Cryptococcus neoformans TIMM 0363; assay: MIC by agar dilution method, casitone agar; conditions: 27° C. for 4 days
Description: as §1, §2

[17] = test system: Cryptococcus terreus TIMM 0424; assay: MIC by agar dilution method, casitone agar; conditions: 27° C. for 4 days
Description: as §1, §2

[18] = test system: Rhodotorula rubra TIMM 0923; assay: MIC by agar dilution method, casitone agar; conditions: 27° C. for 4 days
Description: as §1, §2

[19] = test system: Aspergillus flavus TIMM 0058; assay: MIC by agar dilution method, casitone agar; conditions: 27° C. for 7 days
[20] = test system: Aspergillus niger TIMM 0113; assay: MIC by agar dilution method, casitone agar; conditions: 27° C. for 7 days
[21] = test system: Aspergillus commune TIMM 1331; assay: MIC by agar dilution method, casitone agar; conditions: 27° C. for 7 days
[22] = test system: Aspergillus crustorum TIMM 1332; assay: MIC by agar dilution method, casitone agar; conditions: 27° C. for 7 days
[23] = test system: Trichophyton mentagrophytes TIMM 1177; assay: MIC by agar dilution method, casitone agar; conditions: 27° C. for 7 days
[24] = test system: Microsporum canis TIMM 0760; assay: MIC by agar dilution method, casitone agar; conditions: 27° C. for 7 days
[25] = test system: Fonsecaea pedrosoi TIMM 0482; assay: MIC by agar dilution method, casitone agar; conditions: 27° C. for 7 days
[26] = test system: Phialophora verrucosa TIMM 0903; assay: MIC by agar dilution method, casitone agar; conditions: 27° C. for 7 days
[27] = test system: Exophiala werneckii TIMM 1334; assay: MIC by agar dilution method, casitone agar; conditions: 27° C. for 7 days
[28] = test system: Cladosporium carrionii TIMM 0337; assay: MIC by agar dilution method, casitone agar; conditions: 27° C. for 7 days
[29] = test system: Sporothrix schenckii TIMM 0959; assay: MIC by agar dilution method, casitone agar; conditions: 27° C. for 7 days
[30] = test system: Histoplasma capsulatum TIMM 0714; conditions: 27° C. for 7 days
[31] = test system: Geotrichum candidum TIMM 0694; assay: MIC by agar dilution method, casitone agar; conditions: 27° C. for 7 days
[32] = test system: Trichosporon cutanum TIMM 1318; assay: MIC by agar dilution method, casitone agar; conditions: 27° C. for 7 days
[33] = test system: Blastomyces dermatitidis TIMM 0126; assay: MIC by agar dilution method, casitone agar; conditions: 27° C. for 7 days

CCC(C)C1NC(=O)C2CCCN2C(=O)C(Cc2ccccc2)N(C)C(=O)C(Cc2ccccc2)NC(=O)C(C(C)C)N(C)C(=O)C(C(C)CC)OC(=O)C(C(C)(C)O)N(C)C(=O)C(CC(C)C)NC(=O)C(C(C)C)N(C)C1=O (stereo not drawn) [Compound 1] (cyclo([ξNMeVal(3-OH)][X1][NMeV]F[NMeF]PI[NMeV]L); configuration not given here)
Minimum Inhibitory Concentration [1]: ≤ 0.04 µg/mL
Minimum Inhibitory Concentration [2]: ≤ 0.04 µg/mL
Minimum Inhibitory Concentration [3]: ≤ 0.04 µg/mL
Minimum Inhibitory Concentration [4]: ≤ 0.04 µg/mL
Minimum Inhibitory Concentration [5]: ≤ 0.04 µg/mL
Minimum Inhibitory Concentration [6]: 0.08 µg/mL
Minimum Inhibitory Concentration [7]: 0.08 µg/mL
Minimum Inhibitory Concentration [8]: 0.16 µg/mL
Minimum Inhibitory Concentration [9]: ≤ 0.04 µg/mL
Minimum Inhibitory Concentration [10]: 0.16 µg/mL
Minimum Inhibitory Concentration [11]: 0.08 µg/mL
Minimum Inhibitory Concentration [12]: 0.08 µg/mL
Minimum Inhibitory Concentration [13]: 0.31 µg/mL
Minimum Inhibitory Concentration [14]: 0.63 µg/mL
Minimum Inhibitory Concentration [15]: 0.31 µg/mL
Minimum Inhibitory Concentration [16]: 1.25 µg/mL
Minimum Inhibitory Concentration [17]: 0.31 µg/mL
Minimum Inhibitory Concentration [18]: 0.63 µg/mL
Minimum Inhibitory Concentration [19]: > 80 µg/mL
Minimum Inhibitory Concentration [20]: > 80 µg/mL
Minimum Inhibitory Concentration [21]: 1.25 µg/mL
Minimum Inhibitory Concentration [22]: > 80 µg/mL
Minimum Inhibitory Concentration [23]: > 80 µg/mL
Minimum Inhibitory Concentration [24]: > 80 µg/mL
Minimum Inhibitory Concentration [25]: 0.31 µg/mL
Minimum Inhibitory Concentration [26]: > 80 µg/mL
Minimum Inhibitory Concentration [27]: 1.25 µg/mL
Minimum Inhibitory Concentration [28]: 1.25 µg/mL
Minimum Inhibitory Concentration [29]: > 80 µg/mL
Minimum Inhibitory Concentration [30]: 0.08 µg/mL
Minimum Inhibitory Concentration [31]: 0.63 µg/mL
Minimum Inhibitory Concentration [32]: > 80 µg/mL
Minimum Inhibitory Concentration [33]: 0.31 µg/mL
